Experiments:
pigweed = test: Test E: postemergence plant response rating; format: in vivo, Amaranthus retroflexus L.; details: Compound 1 alone 125 g ai/ha; Test E plants
Description: (§1) For all of the following biological tests, plant response ratings were based on a 0-100 scale where zero is growth equivalent to that of untreated plants (no plant response) and 100 represents no additional growth occurring after herbicide treatment.
(§2) Herbicide mixtures were formulated, dissolved/dispersed in water containing 0.25% non-ionic surfactant, sprayed postemergence to the crops: winter wheat (Triticum aestivum L.), spring wheat (Triticum aestivum L.), winter barley (Hordeum vulgare L.) and spring barley (Hordeum vulgare L.), and the weeds: blackgrass (Alopecurus myosuroides Huds.), lambsquarters (Chenopodium album L.) and pigweed (Amaranthus retroflexus L.). Treated plants were grown under greenhouse conditions for two weeks before visual evaluations of plant responses were recorded.

blackgrass = test: Test E: postemergence plant response rating; format: in vivo, Alopecurus myosuroides Huds.; details: Compound 1 alone 125 g ai/ha; Test E plants
Description: as §1, §2

Purple nutsedge = test: Test G: turf grass and weed postemergence plant response rating; format: in vivo, Cyperus rotundus L.; details: Compound 1 alone 125 g ai/ha; Test G plants
Description: as §1
(§3) Plants of the turf grass species: zoysia (Zoysia japonica Steud.), bermudagrass (Cynodon dactylon (L.) Pers.), tall fescue (Festuca arundinacea Shreib.), creeping bentgrass (Agrostis stoonoifera L.), perennial ryegrass (Lolium perenne L.) and hard fescue (Festuca species) were grown under greenhouse conditions for four months. Plants were clipped as needed to plant heights of 5-10 cm. Weeds typically found in turf: annual bluegrass (Poa annua L.), common chickweed (Stellaria media (L.) Vill.), large crabgrass (Digitaria sanguinales (L.) Scop.), dandelion (Taraxacum officinale Weber in Wiggers), goosegrass (Eleusine indica (L.) Gaertn.), henbit (Lamium amplexicaule L.), venice mallow (Hibiscus trionium L.) and purple nutsedge (Cyperus rotundus L.) were also grown under greenhouse conditions so that plants were 5-20 cm tall when they were treated. Herbicide mixtures were formulated, dissolved/dispersed in water containing 0.25% non-ionic surfactant, and sprayed postemergence to these turf grasses and weeds. Treated plants were grown under greenhouse conditions for three weeks before visual evaluations of plant responses were recorded.

[1] = tested on: Pioneer 39K40 hybrid maize; test: Test B: visual plant response rating, postemergence herbicides with Compound 1 rate series; format: in vivo, Zea mays L. spp. indentata Sturt.; details: Compound 1 alone 125 g ai/ha; Test B
Protocol: as §1
Herbicide mixtures were dissolved/dispersed in a non-phytotoxic liquid carrier and were sprayed postemergence to Pioneer 39K40 hybrid maize (Zea mays L. spp. indentata Sturt.) in the third collar growth stage (extended leaf height was 50-60 cm). Treated plants were grown under greenhouse conditions for two weeks before visual evaluations of plant responses were recorded.

spring wheat = test: Test E: postemergence plant response rating; format: in vivo, Triticum aestivum L.; details: Compound 1 alone 125 g ai/ha; Test E plants
Description: as §1, §2

winter wheat = test: Test E: postemergence plant response rating; format: in vivo, Triticum aestivum L.; details: Compound 1 alone 125 g ai/ha; Test E plants
Description: as §1, §2

sorghum hybrid WL09-6002 = tested on: sorghum hybrid WL09-6002; set-up: species or system Sorghum bicolor (L.) Moench; details: in vivo
Description: as §1
(§4) Cultivated sorghum varieties are generally very sensitive to acetohydroxy acid synthase-inhibiting herbicides such as rimsulfuron. To impart tolerance in sorghum hybrids WL09-6001 and WL09-6002 used in this test, plant breeders introduced a gene for acetohydroxy acid synthase (also known as acetolactate synthase) resistant to inhibition by certain acetohydroxy acid synthase-inhibiting herbicides, by breeding starting from a wild Sorghum genotype containing the resistance gene (see U.S. Patent Publication US 2008/0216187 A1).
(§5) Herbicide mixtures were formulated, dissolved/dispersed in water containing 1% crop oil concentrate, and sprayed postemergence to sorghum (Sorghum bicolor (L.) Moench) in the third collar growth stage (extended leaf height is 10-20 cm). Treated plants were grown under greenhouse conditions for two weeks before visual evaluations of plant responses were recorded.

sorghum hybrid WL09-6001 = tested on: sorghum hybrid WL09-6001; set-up: species or system Sorghum bicolor (L.) Moench; details: in vivo
Description: as §1, §4, §5

velvetleaf = test: Test I: postemergence plant response rating; format: in vivo, Abutilon theophrasti Medik.; details: Compound 1 alone 125 g ai/ha; Test I plants
Description: as §1
(§6) Herbicide mixtures were formulated, dissolved/dispersed in water containing 0.25% non-ionic surfactant, and sprayed postemergence to the crop: soybean (Glycine max (L.) Merr.) at the 2-leaf growth stage and to weeds: lambsquarters (Chenopodium album L.) and velvetleaf (Abutilon theophrasti Medik.). Weed species were 5-10 cm tall when treated. Treated plants were grown under greenhouse conditions for two weeks before visual evaluations of plant responses were recorded.

soybean = test: Test I: postemergence plant response rating; format: in vivo, Glycine max (L.) Merr.; details: Compound 1 alone 125 g ai/ha; Test I plants
Description: as §1, §6

Tall fescue = test: Test G: turf grass and weed postemergence plant response rating; format: in vivo, Festuca arundinacea Shreib.; details: Compound 1 alone 125 g ai/ha; Test G plants
Description: as §1, §3

sugarcane = test: Test J: sugarcane postemergence plant response rating, field conditions; format: in vivo, Saccharum officinarum L.; details: Compound 1 alone 140 g ai/ha; Test J
Protocol: as §1
Herbicide mixtures were formulated, dissolved/dispersed in water containing 0.25% non-ionic surfactant, and sprayed postemergence to sugarcane (Saccharum officinarum L.) approximately 20-40 cm tall (extended leaf height). This test was conducted under field conditions. Visual evaluations of plant responses were recorded four weeks after the plants were treated.

lambsquarters = test: Test E: postemergence plant response rating; format: in vivo, Chenopodium album L.; details: Compound 1 alone 125 g ai/ha; Test E plants
Description: as §1, §2

winter barley = test: Test F: preemergence plant response rating; format: in vivo, Hordeum vulgare L.; details: Compound 1 alone 125 g ai/ha; Test F plants
Description: as §1
Herbicide mixtures were formulated, dissolved/dispersed in water, and sprayed preemergence to the crops: winter wheat (Triticum aestivum L.) and winter barley (Hordeum vulgare L.), and the weed: blackgrass (Alopecurus myosuroides Huds). Treated plants were grown under greenhouse conditions for three weeks before visual evaluations of plant responses were recorded.

Hard fescue = test: Test G: turf grass and weed postemergence plant response rating; format: in vivo, Festuca species; details: Compound 1 alone 125 g ai/ha; Test G plants
Description: as §1, §3

Measured: injury, Compound 1 alone

Cc1ccccc1S(=O)(=O)NC(N)=O [Compound 1, N-(aminocarbonyl)-2-methylbenzenesulfonamide]
no injury: all assays above
